The record followed here is US20250268928A1, “USE OF BACTERIORUBERINS AND GLYCOSYL DERIVATIVES THEREOF TO PREVENT AND TREAT DISEASES INVOLVING DYSREGULATED PROTEIN AGGREGATION, SUCH AS NEURODEGENERATIVE DISEASES” (NAOS INSTITUTE OF LIFE SCIENCE, priority 2020, published 2025).

One test has as its system Murine cortical neurons. The test is described as follows: Neural network integrity of cortical neurons damaged by glutamate (MAP-2 immunolabeling). The note with it: 48 hours after, FIG. 4. In kind it is cell-based. Here is the method:
(§1) Murine cortical neurons were cultured as described by Callizot et al., 2013. The cells were mechanically dissociated by three forced passages through the tip of a 10 mL pipette. The cells were then centrifuged at 515×g for 10 minutes at 4° C. The supernatant was removed and the pellet was taken up in a defined culture medium constituted by Neurobasal medium with a 2% solution of B27 supplement, 2 mmol/litre of L-glutamine, 2% of PS solution and 10 ng/ml of BDNF. The viable cells were counted in a Neubauer cytometer, using the trypan blue exclusion test. The cells were seeded in a density of 25000 per well in a 96-well plate pre-coated with poly-L-lysine and were cultured at 37° C. in a CO2 incubator (5%). The medium was changed every two days. The experiments were subsequently carried out on 96-well plates (n=6 culture wells per condition). In the 96 wells of each plate, only 60 were used. The wells in the first and last rows and columns were not used in order to avoid any edge effects and were filled with sterile water.
(§2) The compounds to be tested were dissolved in DMSO and the concentration was adjusted in order to ensure a concentration of DMSO in the culture medium of 0.1%. […]
(§3) For each condition, 30 images per well were automatically recorded using ImageXpress (Molecular Devices) at 20× magnification. […]
(§4) The data were expressed as a percentage of the control. […]

The subject of the next test is tau protein. The test can be described thus: Hyperphosphorylation of tau protein (AT100) in cortical neurons damaged by glutamate. In kind it is cell-based, Murine. The note with it: % of the negative control (100%=value 0); glutamate 20 μM, 20 min; 48 hours after; SBE 1 μm, BDNF 50 ng/mL; FIG. 5. The procedure: as §1, §2, §3, §4
Test [1] addresses T1, Bovine alkaline phosphatase (AP) (Bos taurus, UniProt P19111).
T1 construct: purchased Sigma P0114
The test is described as follows: AP-heat test (protection of alkaline phosphatase against heat denaturing, chaperone effect). In kind it is biochemical. Particulars: 55° C. for 1 hour; all test concentrations (20 μM, 10 μM, 5 μM, 2.5 μM, 1.25 μM); FIG. 2. An excerpt:
The aim of this study was to compare the protein protection capacities of the various components of an extract of carotenoids of the actinobacterium A. agilis separated by chromatography and HPLC. More specifically, we tested all the major fractions to assess their ability to protect the enzyme alkaline phosphatase: • against denaturing via their effect of protecting proteins from denaturing (AP-heat test) (chaperone effect) • against oxidation (APox test) (Protective effect against oxidative stress).
This test is derived from a modification of the APox test for measuring the protection potential of proteins not just against oxidative stress, but against denaturing (heat stress). In fact, under the effect of heat, proteins are denatured and enzymes lose their activity. […]
• Bovine alkaline phosphatase (AP) (Sigma P0114) • Liquid substrate of alkaline phosphatase (Sigma P7998) • Heating block • Flat-bottomed 96-well plate • Plate reader at 405 nm […]
Read OD at 405 nm for 20 min at 37° C.
The protective power of a “molecule X” against denaturing (PPX) is calculated by taking the ratio of the activity of alkaline phosphatase (PA) at 55° C. […]
The activity of the enzyme for each condition is calculated by taking the mean of the optical density values measured at 405 nm for the replicates, from which values the mean value of what are known as the “blank” wells (reagents alone) is subtracted, i.e.: […]

The target of test [2] is T1, Bovine alkaline phosphatase (AP). The test is described as follows: APox test (protection of alkaline phosphatase against oxidative stress). In kind it is biochemical. The note with it: hydrogen peroxide/FeO4S, 15 min at 37° C.; all test concentrations (20 μM to 1.25 μM); FIG. 3. The text has this: The aim of this study was to compare the protein protection capacities of the various components of an extract of carotenoids of the actinobacterium A. agilis separated by chromatography and HPLC. More specifically, we tested all the major fractions to assess their ability to protect the enzyme alkaline phosphatase: • against denaturing via their effect of protecting proteins from denaturing (AP-heat test) (chaperone effect) • against oxidation (APox test) (Protective effect against oxidative stress). This test is described in patent application FR 3002544 A1 and measures the ability of a substance to protect the enzyme alkaline phosphatase from oxidative stress. • Bovine alkaline phosphatase (AP) (Sigma P0114) • Liquid substrate for AP (Sigma P7998) • 30% hydrogen peroxide • FeO4S solution (30 mg in 1 mL H2O) • Flat-bottomed 96-well plate • Plate reader at 405 nm The Following were Deposited in Each Well: • 10 μL of AP diluted to 10^−5 in 10^−2M MgSO4. • 4 μL of test molecule, solvent (negative control) or H2O (positive control)+6 μL of H2O • 30 μL of a hydrogen peroxide solution (from a stock solution composed of 940 μL H2O+40 μL 30% H2O2+20 μL 10^−2 FeO4S) or 30 μL of H2O (positive control) • Allow to incubate for 15 min at 37° C. • Add 50 μL of liquid substrate. • Read OD at 405 nm for 20 min at 37° C. […]

T1 sequence (P19111 20-506 limits assumed): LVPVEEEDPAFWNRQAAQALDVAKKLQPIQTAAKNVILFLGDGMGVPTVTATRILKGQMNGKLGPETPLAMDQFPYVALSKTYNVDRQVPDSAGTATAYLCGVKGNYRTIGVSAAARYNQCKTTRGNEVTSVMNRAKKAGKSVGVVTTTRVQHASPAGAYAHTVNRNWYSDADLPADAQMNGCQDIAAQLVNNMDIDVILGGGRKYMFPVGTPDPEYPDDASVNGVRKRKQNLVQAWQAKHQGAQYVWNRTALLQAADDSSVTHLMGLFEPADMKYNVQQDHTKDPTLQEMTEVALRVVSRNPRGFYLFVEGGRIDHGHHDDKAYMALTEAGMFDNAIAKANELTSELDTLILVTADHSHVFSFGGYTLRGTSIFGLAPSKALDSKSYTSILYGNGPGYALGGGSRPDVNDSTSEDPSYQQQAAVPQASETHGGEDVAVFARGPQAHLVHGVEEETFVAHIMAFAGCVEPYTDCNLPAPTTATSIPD

Turning to `N[C@@H](CCC(=O)O)C(=O)O` [Glutamate, reference compound], the “reduction in neural network density” value in the test on Murine cortical neurons (glutamate poisoning alone (20 μM, 20 min)/vehicle) was 60%. Also, the “hyperphosphorylation of tau protein (AT100 zone, tau/MAP-2 overlap)” value with tau protein is given as “+193%”. Consider Diglycosylated bacterioruberin [BR-DiG], for which, in test [1], the “percentage protection against heat (AP-heat test)” value is “protect the protein more effectively than the BR itself”. In addition, the “percentage of protection against oxidative stress (APOX test)” value in test [2] is on record as “particularly pronounced”.

On to “Monoglycosylated bacterioruberin [BR-MonoG]”, for which the “percentage protection against heat (AP-heat test)” value in test [1] is recorded as “protect the protein more effectively than the BR itself”.

B1: BDNF: neurotrophin used as a positive control (protein, UniProt P23560 19-247, looked up)
Neurotrophic factor BDNF …: APMKEANIRGQGGLAYPGVRTHGTLESVNGPKAGSRGLTSLADTFEHVIEELLDEDQKVRPNEENNKDADLYTSRVMLSSQVPLEPPLLFLLEEYKNYLDAANMSMRVRRHSDPARRGELSVCDSISEWVTAADKKTAVDMSGGTVTVLEKVPVSKGQLKQYFYETKCNPMGYTKEGCRGIDKRHWNSQCRTTQSYVRALTMDSKKRIGWRFIRIDTSCVCTLTIKRGR
As for B1, the “total neural network (MAP-2 positive neural length)” value in the test with Murine cortical neurons (percentage of control, glutamate 20 μM, 20 min, 1 hour pre-incubation, SBE 1 μm, BDNF 50 ng/mL) is 85%. Besides, in the test on tau protein, the “hyperphosphorylation of tau protein (AT100 zone, tau/MAP-2 overlap)” value is “+121%”.
